Laboratory results taken from US20050064524A1, “Population of cells utilizable for substance detection and methods and devices using same” (priority 2003, published 2005).

Key:
U937 cells [1] = assay: Intracellular NO measurement with DAF-2DA probe in labeled cells; assay type: cell-based; conditions: for signal of cells labeled with DAF-2DA (NO probe): FIGS. 22a-b
Method: Fluorescent microscopy and imaging system—Olympus motorized upright epi-fluorescence BX51 microscope, equipped with motorized polarization filters for fluorescence polarization measurements was used. Cells were illuminated by a Mercury light source. The emitted fluorescence was imaged by CoolSNAP HQ monochrome CCD camera, or DVC-1312 (DVC Company, West Austin, Tex., USA) color camera. Digital image analysis of cellular fluorescence was performed by Image Pro plus software (Media Cybernetics. Inc. Silver Spring, Md.,USA).
Quantitative measurements of intracellular NO concentration in individual U937 cells were effected in response to incubation in the presence of the Diethylene triamine NONOate ([…]) donor (0.1-1 mM). The loading of cells with probe was measured in bulk at the individual cell level. Probe concentration loading time and cell washing were determined. The kinetic of NO generation was measured in real time by sequentially monitoring the same individual cells. Photo-toxicity induced by repeated excitations was checked and subtracted. Time response of NO generation in the presence or absence of DETA/NO donor (0.5 mM) in U937 cells labeled with DAF-2DA (10 μM, 15 min) is shown in FIG. 3. […] Quantitative measurements of intracellular NO levels in individual living cells labeled with DAF-2DA and treated with DETA/NO are shown in FIGS. 7a-b and 8a-b.
(§1) The specificity of DCFH-DA and DAF-2DA towards ROS and […] respectively, was tested.

U937 cells [2] = assay: Specificity of ROS probe DCFH-DA towards hydrogen peroxide and NO donor in labeled cells; assay type: cell-based; conditions: FIGS. 22a-b
Method: The pro-monocyte U937 cell line was used as cell culture model. Hydrogen peroxide was used as a source of ROS. Probe loading of cells was measured in bulk and at individual cell level. Probe concentration, loading time and cell washing were determined for the different ROS probes. The kinetics of ROS generation was measured in real time by monitoring sequentially the same individual cells. Photo toxicity induced by repeated excitations was checked. FIGS. 12-17, 18-19 and 20-21a-b show the ability of dihydrorhodamine 123 (DHR), dichlorodihydrofluorescein diacetate (DCFH-DA) and dihydroethidium (DHE), respectively, to detect ROS formation in U937 cells treated with hydrogen peroxide.
as §1

individual live cell = conditions: hydrogen peroxide stimulus, FIG. 27
Method: Measurement of intracellular ROS in live cells—The measurement of intracellular reactive oxygen species (ROS) levels was performed using the DHR123 (1-10 μM), DCFDA(1 μM) or DHE (2 μM) probes.
For probe loading, 100 μl of cells at a concentration of 1.52×10^6 cells/mL in PBS or in serum free media without phenol red were incubated in the presence of the various probes for 15 min at 37° C. and 5% CO2, and then washed twice in PBS and thereafter exposed to either LPC (10-20 μM), MTX (50 nM) or H2O2 (10-500 μM).

Row | SMILES | intracellular NO generation in U937 cells in response to donor (U937 cells [1]; U937 cells labeled with DAF-2DA (10 μM, 15 min), donor 0.1-1 mM) | signal of cells labeled with DAF-2DA (NO probe) (U937 cells [1]) | signal of cells labeled with DCFH-DA (ROS probe) (U937 cells [2]) | temporal relationship between ROS generation (DHR) and onset of changes in mitochondrial membrane potential (TMRM) (individual live cell)
1 | NCCN(CCN)/[N+]([O-])=N/O [DETA/NO, Diethylene triamine NONOate] | accumulate NO | strong signal | only a minor response | 
2 | OO [hydrogen peroxide] |  | background signal | strong and quantifiable signal | Hyperpolarization of mitochondrial membrane potential preceded the increase in ROS level
